Measured values from ChEMBL document CHEMBL4411306, “High-throughput screening of novel pyruvate dehydrogenase kinases inhibitors and biological evaluation of their in vitro and in vivo antiproliferative activity” (Eur J Med Chem, 2019).
The source made the active and inactive calls. The rule behind the calls is not given here.

How the values were obtained:
[1] = target: T1, [Pyruvate dehydrogenase (acetyl-transferring)] kinase isozyme 2, mitochondrial (Homo sapiens, UniProt Q15119); assay: Inhibition of recombinant human His6-tagged N-terminal PDHK2 (A8 to T399 residues) expressed in baculovirus expression system using PDC as substrate incubated for 10 mins followed by ATP addition measured at 12 secs interval for 20 mins
[2] = test system: NCI-H1975; assay: Antitumor activity against human NCI-H1975 cells xenografted in nude mouse assessed as reduction in tumor weight administered orally once daily for 21 days; assay type: functional, cell-based
[3] = test system: NCI-H1975; assay: Induction of apoptosis in human NCI-H1975 cells assessed as late apoptotic cells at 10 uM after 12 hrs by Annexin V-FITC/propidium iodide staining based flow cytometry (reference value: 3.7%); assay type: functional
[4] = test system: A-375; assay: Antiproliferative activity against human A375 cells assessed as reduction in cell viability after 72 hrs by MTT assay; assay type: functional
[5] = test system: NCI-H1975; assay: Induction of apoptosis in human NCI-H1975 cells assessed as live cells at 2 uM after 12 hrs by Annexin V-FITC/propidium iodide staining based flow cytometry (reference value: 92.7%); assay type: functional
[6] = test system: HCT-116; assay: Antiproliferative activity against human HCT116 cells assessed as reduction in cell viability after 72 hrs by MTT assay; assay type: functional
[7] = test system: NCI-H1975; assay: Inhibition of PDK in human NCI-H1975 cells assessed as reduction in PDH phosphorylation at 10 uM after 12 hrs by Western blot analysis; assay type: cell-based
[8] = target: T2, [Pyruvate dehydrogenase (acetyl-transferring)] kinase isozyme 1, mitochondrial (Homo sapiens, UniProt Q15118); assay: Inhibition of PDK1 in human NCI-H1975 cells assessed as switch of pyruvate metabolism from lactate production to oxidative phosphorylation by measuring increase in oxygen consumption rates at 1 to 10 uM measured after 4 hrs by XFe24 extracellular flux analyzer based assay; assay type: cell-based
[9] = Toxicity in nude mouse xenografted with human NCI-H1975 cells assessed as effect on body weight at 10 to 20 mg/kg, po administered once daily for 21 days measured twice weekly during compound dosing; assay type: organism-based; settings: in vivo, 504 h
[10] = test system: NCI-H1975; assay: Induction of apoptosis in human NCI-H1975 cells assessed as late apoptotic cells at 4 uM after 12 hrs by Annexin V-FITC/propidium iodide staining based flow cytometry (reference value: 3.7%); assay type: functional
[11] = test system: NCI-H1975; assay: Induction of apoptosis in human NCI-H1975 cells assessed as necrotic cells at 4 uM after 12 hrs by Annexin V-FITC/propidium iodide staining based flow cytometry (reference value: 1.8%); assay type: functional
[12] = test system: NCI-H1975; assay: Induction of apoptosis in human NCI-H1975 cells assessed as live cells at 4 uM after 12 hrs by Annexin V-FITC/propidium iodide staining based flow cytometry (reference value: 92.7%); assay type: functional
[13] = test system: NCI-H1975; assay: Induction of apoptosis in human NCI-H1975 cells assessed as early apoptotic cells at 10 uM after 12 hrs by Annexin V-FITC/propidium iodide staining based flow cytometry (reference value: 1.8%); assay type: functional
[14] = test system: NCI-H1975; assay: Induction of apoptosis in human NCI-H1975 cells assessed as necrotic cells at 10 uM after 12 hrs by Annexin V-FITC/propidium iodide staining based flow cytometry (reference value: 1.8%); assay type: functional
[15] = test system: NCI-H1975; assay: Induction of apoptosis in human NCI-H1975 cells assessed as early apoptotic cells at 0.5 uM after 12 hrs by Annexin V-FITC/propidium iodide staining based flow cytometry (reference value: 1.8%); assay type: functional
[16] = target: T1, [Pyruvate dehydrogenase (acetyl-transferring)] kinase isozyme 2, mitochondrial; assay: Inhibition of recombinant human His-tagged PDK2 expressed in Escherichia coli using PDH E1 as substrate measured after 30 mins by Kinase-Glo luminescence assay
[17] = target: [Pyruvate dehydrogenase (acetyl-transferring)] kinase isozyme 4, mitochondrial (Homo sapiens, UniProt Q16654); assay: Inhibition of recombinant human His-tagged PDK4 expressed in Escherichia coli using PDH E1 as substrate measured after 30 mins by Kinase-Glo luminescence assay
[18] = test system: NCI-H1975; assay: Induction of apoptosis in human NCI-H1975 cells assessed as necrotic cells at 2 uM after 12 hrs by Annexin V-FITC/propidium iodide staining based flow cytometry (reference value: 1.8%); assay type: functional
[19] = test system: NCI-H1975; assay: Induction of apoptosis in human NCI-H1975 cells assessed as necrotic cells at 0.5 uM after 12 hrs by Annexin V-FITC/propidium iodide staining based flow cytometry (reference value: 1.8%); assay type: functional
[20] = target: [Pyruvate dehydrogenase (acetyl-transferring)] kinase isozyme 3, mitochondrial (Homo sapiens, UniProt Q15120); assay: Inhibition of recombinant human His-tagged PDK3 expressed in Escherichia coli using PDH E1 as substrate measured after 30 mins by Kinase-Glo luminescence assay
[21] = target: T2, [Pyruvate dehydrogenase (acetyl-transferring)] kinase isozyme 1, mitochondrial; assay: Inhibition of recombinant human His-tagged PDK1 expressed in Escherichia coli using PDH E1 as substrate measured after 30 mins by Kinase-Glo luminescence assay
[22] = target: T2, [Pyruvate dehydrogenase (acetyl-transferring)] kinase isozyme 1, mitochondrial; assay: Inhibition of PDK1 in human NCI-H1975 cells assessed as switch of pyruvate metabolism from lactate production to oxidative phosphorylation by measuring decrease in extracellular acidification rate at 1 to 10 uM measured after 4 hrs by XFe24 extracellular flux analyzer based assay; assay type: cell-based
[23] = test system: NCI-H1975; assay: Induction of apoptosis in human NCI-H1975 cells assessed as late apoptotic cells at 2 uM after 12 hrs by Annexin V-FITC/propidium iodide staining based flow cytometry (reference value: 3.7%); assay type: functional
[24] = test system: NCI-H1975; assay: Induction of apoptosis in human NCI-H1975 cells assessed as late apoptotic cells at 0.5 uM after 12 hrs by Annexin V-FITC/propidium iodide staining based flow cytometry (reference value: 3.7%); assay type: functional
[25] = Permeability across human Caco2 cells by liquid scintillation counting method; assay type: ADME, cell-based; settings: caco-2
[26] = test system: NCI-H1975; assay: Antiproliferative activity against human NCI-H1975 cells assessed as reduction in cell viability after 72 hrs by MTT assay; assay type: functional
[27] = test system: NCI-H1650; assay: Antiproliferative activity against human NCI-H1650 cells assessed as reduction in cell viability after 72 hrs by MTT assay; assay type: functional
[28] = test system: NCI-H1975; assay: Antitumor activity against human NCI-H1975 cells xenografted in nude mouse assessed as tumor growth inhibition administered orally once daily for 21 days; assay type: functional, cell-based
[29] = Antiproliferative activity against human BEAS2B cells assessed as reduction in cell viability after 72 hrs by MTT assay; assay type: cell-based; settings: BEAS-2B cells, read-out: GC50
[30] = test system: MCF7; assay: Antiproliferative activity against human MCF7 cells assessed as reduction in cell viability after 72 hrs by MTT assay; assay type: functional
[31] = test system: Mus musculus; assay: In-vivo of inhibition of PDH phosphorylation in tumor of nude mouse xenografted with human NCI-H1975 cells at 10 to 20 mg/kg, po administered once daily for 21 days measured post last dose by Western blot analysis; assay type: functional, organism-based
[32] = test system: NCI-H1975; assay: Induction of apoptosis in human NCI-H1975 cells after 12 hrs by Annexin V-FITC/propidium iodide staining based flow cytometry; assay type: functional, cell-based
[33] = target: T2, [Pyruvate dehydrogenase (acetyl-transferring)] kinase isozyme 1, mitochondrial; assay: Inhibition of PDK1 in human NCI-H1975 cells assessed as switch of pyruvate metabolism from lactate production to oxidative phosphorylation by measuring by measuring reduction in lactate formation at 10 uM measured after 4 hrs; assay type: cell-based
[34] = test system: NCI-H1975; assay: Induction of apoptosis in human NCI-H1975 cells assessed as live cells at 10 uM after 12 hrs by Annexin V-FITC/propidium iodide staining based flow cytometry (reference value: 92.7%); assay type: functional
[35] = target: T2, [Pyruvate dehydrogenase (acetyl-transferring)] kinase isozyme 1, mitochondrial; assay: Inhibition of PDK1 in human NCI-H1975 cells assessed as switch of pyruvate metabolism from lactate production to oxidative phosphorylation by measuring increase in ROS production at high concentration after 4 hrs by DCFH-DA dye based assay; assay type: cell-based
[36] = test system: HepG2; assay: Antiproliferative activity against human HepG2 cells assessed as reduction in cell viability after 72 hrs by MTT assay; assay type: functional
[37] = target: Heat shock protein HSP90 (Homo sapiens, UniProt P07900+P08238); assay: Inhibition of human HSP90 measured after 30 mins by fluorescence polarization assay; assay type: protein assay
[38] = Inhibition of porcine PDK assessed as activation of pyruvate dehydrogenase complex measured after 3 mins; set-up: species or system Sus scrofa
[39] = test system: A549; assay: Antiproliferative activity against human A549 cells assessed as reduction in cell viability after 72 hrs by MTT assay; assay type: functional
[40] = test system: NCI-H1975; assay: Induction of apoptosis in human NCI-H1975 cells assessed as live cells at 0.5 uM after 12 hrs by Annexin V-FITC/propidium iodide staining based flow cytometry (reference value: 92.7%); assay type: functional
[41] = test system: NCI-H1975; assay: Induction of apoptosis in human NCI-H1975 cells assessed as early apoptotic cells at 2 uM after 12 hrs by Annexin V-FITC/propidium iodide staining based flow cytometry (reference value: 1.8%); assay type: functional
[42] = test system: NCI-H1975; assay: Induction of apoptosis in human NCI-H1975 cells assessed as early apoptotic cells at 4 uM after 12 hrs by Annexin V-FITC/propidium iodide staining based flow cytometry (reference value: 1.8%); assay type: functional
[43] = target: T2, [Pyruvate dehydrogenase (acetyl-transferring)] kinase isozyme 1, mitochondrial; assay: Binding affinity to recombinant human His-tagged PDK1 expressed in Escherichia coli by isothermal calorimetry

T2 sequence (Q15118 whole entry): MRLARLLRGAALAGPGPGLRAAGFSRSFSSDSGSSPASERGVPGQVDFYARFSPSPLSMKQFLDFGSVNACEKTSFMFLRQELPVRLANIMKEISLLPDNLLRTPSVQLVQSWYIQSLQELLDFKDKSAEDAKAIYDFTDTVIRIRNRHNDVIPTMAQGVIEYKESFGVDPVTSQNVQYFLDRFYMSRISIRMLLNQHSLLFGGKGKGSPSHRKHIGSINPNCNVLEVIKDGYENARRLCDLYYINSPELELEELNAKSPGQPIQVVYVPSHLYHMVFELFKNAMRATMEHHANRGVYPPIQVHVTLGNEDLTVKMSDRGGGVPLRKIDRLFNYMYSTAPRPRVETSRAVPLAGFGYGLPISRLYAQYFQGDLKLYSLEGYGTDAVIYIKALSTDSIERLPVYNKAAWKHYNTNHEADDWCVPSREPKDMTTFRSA
Sequence of [Pyruvate dehydrogenase (acetyl-transferring)] kinase isozyme 4, mitochondrial (Q16654 whole entry): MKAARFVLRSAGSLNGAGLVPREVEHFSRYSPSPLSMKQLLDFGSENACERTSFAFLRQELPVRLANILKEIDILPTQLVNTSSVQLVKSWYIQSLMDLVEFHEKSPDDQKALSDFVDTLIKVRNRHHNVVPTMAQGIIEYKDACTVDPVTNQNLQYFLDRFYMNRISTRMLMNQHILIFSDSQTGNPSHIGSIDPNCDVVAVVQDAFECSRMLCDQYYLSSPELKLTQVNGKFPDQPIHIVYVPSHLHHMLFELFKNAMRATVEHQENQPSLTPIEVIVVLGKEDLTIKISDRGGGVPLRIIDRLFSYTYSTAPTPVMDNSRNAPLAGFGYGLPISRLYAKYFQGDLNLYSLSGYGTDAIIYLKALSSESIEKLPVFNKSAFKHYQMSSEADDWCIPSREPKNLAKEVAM
Sequence of [Pyruvate dehydrogenase (acetyl-transferring)] kinase isozyme 3, mitochondrial (Q15120 whole entry): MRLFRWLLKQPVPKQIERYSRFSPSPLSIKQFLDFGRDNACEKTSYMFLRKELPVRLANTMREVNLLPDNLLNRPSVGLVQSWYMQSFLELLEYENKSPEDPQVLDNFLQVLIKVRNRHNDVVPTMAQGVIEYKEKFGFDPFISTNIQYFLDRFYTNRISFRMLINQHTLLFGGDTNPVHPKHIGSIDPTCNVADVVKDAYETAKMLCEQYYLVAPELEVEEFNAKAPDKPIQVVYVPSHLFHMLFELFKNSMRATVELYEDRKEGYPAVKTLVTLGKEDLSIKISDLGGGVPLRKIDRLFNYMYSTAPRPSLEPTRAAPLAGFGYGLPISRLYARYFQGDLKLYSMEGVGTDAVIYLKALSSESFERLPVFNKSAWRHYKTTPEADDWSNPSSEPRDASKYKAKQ

SMILES: CC(C)c1ccc(COc2ccc(CC(=O)NCCN)cc2Cl)cc1
- IC50 [1]: 2 µM

SMILES: Cc1cccc(NC(=O)CSc2n[nH]c(-c3ccccc3O)n2)c1C
- Activity [2]: Dose-dependent effect
- Activity [3]: 11.1%
- Activity [4]: Dose-dependent effect
- GC50 [4]: 6.4 µM
- Activity [5]: 90.3%
- Activity [6]: Dose-dependent effect
- GC50 [6]: 12.7 µM
- reduction in PDH phosphorylation (qualitative) [7]: Active
- inhibition [8]: Active
- Activity [9]: Non-Toxic
- Activity [10]: 10.6%
- Activity [11]: 1.2%
- Activity [12]: 85.5%
- Activity [13]: 13.1%
- Activity [14]: 2.4%
- Activity [15]: 2%
- IC50 [16]: 3.8 µM
- IC50 [17]: 2.5 µM
- Activity [18]: 1.6%
- Activity [19]: 0.9%
- IC50 [20]: 5.7 µM
- IC50 [21]: 0.29 µM
- inhibition [22]: Active
- Activity [23]: 5%
- Activity [24]: 4.8%
- Papp [25]: 8.51 ×10⁻⁶ cm/s
- Activity [26]: Dose-dependent effect
- GC50 [26]: 2.3 µM
- Activity [27]: Dose-dependent effect
- GC50 [27]: 3.1 µM
- TGI [28]: Dose-dependent effect
- GI50 at 72 h [29]: > 20 µM
- Activity [30]: Dose-dependent effect
- GC50 [30]: 9.5 µM
- inhibition [31]: Active
- Activity [32]: Dose-dependent effect
- inhibition [33]: Active
- Activity [34]: 73.4%
- inhibition [35]: Active
- Activity [36]: Dose-dependent effect
- GC50 [36]: 5.2 µM
- IC50 [37]: 0.78 µM
- EC50 [38]: 0.34 µM
- Activity [39]: Dose-dependent effect
- GC50 [39]: 7.9 µM
- Activity [40]: 92.3%
- Activity [41]: 3.1%
- Activity [42]: 2.7%
- Kd [43]: 0.87 µM
